# Data published in the supplement of paper PMC10307832.
# Legend:
# Assay in all cases: relative viability (nuclei count vs DMSO), 5 days (fraction); higher = more cells survive
# [1] = compound: O=C(C[C@H]1NCCC[C@@H]1O)Cn1cnc2cc(Br)c(Cl)cc2c1=O (racemic) [Halofuginone] + C[C@]1(O)C[C@@H](c2nc(-c3ccc4ccc(-c5ccccc5)nc4c3)c3c(N)nccn32)C1 [Linsitinib] (partner 1 µM)
# In short: (§1)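 Lung cancer cell lines in 1536-well plates got either a single drug or a fixed anchor-drug dose together with five library-drug doses (not always all listed) in √10 steps, by pin tool, on the day after seeding. Nuclei were counted after 5 days, and relative viability is the treated-to-vehicle ratio of nuclei counts. Values are medians of duplicate plates.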
# Decitabine + Lapatinib = compound: Nc1ncn([C@H]2C[C@H](O)[C@@H](CO)O2)c(=O)n1 [Decitabine] + CS(=O)(=O)CCNCc1ccc(-c2ccc3ncnc(Nc4ccc(OCc5cccc(F)c5)c(Cl)c4)c3c2)o1 [Lapatinib] (partner 2 µM)
# In short: as §1
# Cediranib + Alpelisib = compound: COc1cc2c(Oc3ccc4[nH]c(C)cc4c3F)ncnc2cc1OCCCN1CCCC1 [Cediranib] + Cc1nc(NC(=O)N2CCC[C@H]2C(N)=O)sc1-c1ccnc(C(C)(C)C(F)(F)F)c1 [Alpelisib] (partner 2 µM)
# In short: as §1
# Cediranib + Phenformin = compound: COc1cc2c(Oc3ccc4[nH]c(C)cc4c3F)ncnc2cc1OCCCN1CCCC1 [Cediranib] + N=C(N)NC(=N)NCCc1ccccc1 [Phenformin] (partner 250 µM)
# In short: as §1
Cell Line,relative viability ([1]; first compound 0.001 µM),relative viability ([1]; first compound 0.003162 µM),relative viability ([1]; first compound 0.01 µM),relative viability ([1]; first compound 0.03162 µM),relative viability ([1]; first compound 0.1 µM),relative viability (Decitabine + Lapatinib; first compound 0.04 µM),relative viability (Decitabine + Lapatinib; first compound 0.1265 µM),relative viability (Decitabine + Lapatinib; first compound 0.4 µM),relative viability (Decitabine + Lapatinib; first compound 1.265 µM),relative viability (Decitabine + Lapatinib; first compound 4 µM),relative viability (Cediranib + Alpelisib; first compound 0.04 µM),relative viability (Cediranib + Alpelisib; first compound 0.1265 µM),relative viability (Cediranib + Alpelisib; first compound 0.4 µM),relative viability (Cediranib + Alpelisib; first compound 1.265 µM),relative viability (Cediranib + Alpelisib; first compound 4 µM),relative viability (Cediranib + Phenformin; first compound 0.04 µM),relative viability (Cediranib + Phenformin; first compound 0.1265 µM),relative viability (Cediranib + Phenformin; first compound 0.4 µM),relative viability (Cediranib + Phenformin; first compound 1.265 µM),relative viability (Cediranib + Phenformin; first compound 4 µM)
SW 1573,0.902,0.796,0.704,0.683,0.35,1.03,0.993,1.05,0.646,0.515,0.586,0.834,0.655,0.619,0.79,0.35,0.336,0.329,0.394,0.416
NCI-H661,0.677,0.589,0.537,0.627,0.39,0.465,0.455,0.382,0.297,0.269,0.633,1.03,0.631,0.522,0.588,0.294,0.296,0.281,0.267,0.31
LU99A,0.634,0.477,0.522,0.515,0.45,1.01,1.08,1.19,0.866,0.683,0.567,–,0.489,0.49,0.589,0.726,0.589,0.75,0.734,0.924
LCLC-97TM1,0.209,0.189,0.187,0.179,0.163,0.576,0.335,0.173,0.169,0.126,0.235,–,0.25,0.237,0.199,0.501,0.288,0.421,0.49,0.449
LC-2-ad,0.843,0.796,0.763,0.818,0.264,0.676,0.775,0.317,0.245,0.37,0.994,0.97,0.809,0.86,0.635,0.595,0.497,0.612,0.569,0.554
NCI-H1395,1.17,1.62,1.2,0.961,0.776,0.819,0.675,0.571,0.528,0.821,0.947,–,1.01,1.04,1.04,0.49,0.427,0.467,0.444,0.42
NCI-H2228,0.589,0.926,0.69,0.394,0.199,0.595,0.727,0.489,0.282,0.209,0.955,0.85,0.791,0.929,0.826,0.278,0.272,0.278,0.285,0.319
NCI-H1944,1.2,1.1,1.22,1.13,0.936,0.807,0.819,0.526,0.428,0.416,0.876,1.16,0.757,0.785,0.815,0.211,0.223,0.167,0.205,0.235
HOP-62,1.1,1.07,1.09,0.95,0.302,0.962,0.604,0.348,0.1,0.14,1.16,–,0.74,0.96,1.18,0.703,0.607,0.647,0.632,0.741
NCI-H2347,1.06,1.05,0.902,1.04,0.777,0.895,0.938,0.793,0.548,0.633,1.15,0.997,0.919,0.975,1.12,0.34,0.236,0.383,0.386,0.41
NCI-H2087,1.01,1.04,0.945,0.98,0.833,0.774,0.637,0.457,0.346,0.37,1.05,1.25,1.18,1.11,1.14,0.382,0.45,0.402,0.452,0.546
EPLC-272H,1.28,1.17,1.06,1.2,1.13,0.749,0.777,–,0.543,0.518,1.06,–,0.962,0.97,1,0.307,–,0.334,–,0.253
LXF-289,0.938,1.05,0.877,0.954,0.923,0.809,0.733,0.484,0.402,0.354,1.08,0.971,0.995,1.05,1.04,0.565,0.404,0.487,0.49,0.549
COR-L23,0.973,0.91,0.972,0.876,0.102,0.698,0.51,0.459,0.28,0.23,0.916,0.788,0.816,0.829,0.815,0.452,0.39,0.406,0.405,0.482
RERF-LC-KJ,0.972,0.932,0.843,0.891,0.967,0.804,0.894,0.704,0.717,0.656,0.771,–,0.769,0.761,0.739,0.42,0.442,0.386,0.476,0.426
NCI-H1755,1.06,1.02,0.971,0.985,0.768,1.02,0.991,0.836,0.573,0.481,1,0.919,0.854,0.918,1.01,0.528,0.519,0.616,0.618,0.677
